Measured values reported in patent EP0494754A1, “3-hydroxypyridin-4-one derivatives as pharmaceutical compositions” (BRITISH TECHNOLOGY GROUP LTD, priority 1991, dated 1992).

Columns and labels:
Type in all cases: cell-based
P. falciparum [1] = assay: Inhibition of growth of P. falciparum in red cell culture (tritiated hypoxanthine uptake, continuous exposure to chelator)
Protocol: (A) An uncloned strain of P. falciparum, ITO4, was grown on blood group O red cells using a modification of the method described by Trager et al in Science, 1976, […], 673. An atmopshere consisting of 1% oxygen, 3% carbon dioxide and 96% nitrogen was maintained throughout the experiments. Red cells were suspended at a hematocrit of 3% in RPMI 1640 that had been supplemented with 10% v/v human serum, 2 g/l glucose, 4 mM NaOH, 25 µg/ml gentamicin, 1.9 mM glutamine and 25 mM HEPES to form complete medium. For experimental purposes the red cells were then further diluted with the same medium to a final hematocrit of 1.5%. Synchronised parasite cultures were obtained using a combination of sorbitol lysis and gelatin flotation, as described respectively by Jensen et al in Am. J. Trop. Med. Hyg., 1978, 27, 1274 and Lambros et al in J. Parasitol., 1979, 65, 418, thus ensuring that only young ring forms remained. The starting parasitemia in each experiment was between 0.1 and 0.5%.
A red cell suspension containing only recently synchronised ring parasites was treated with 0.2 µCi of tritiated hypoxanthine per 100 µl of red cell suspension and one of ten chelating agents as identified in the Table was added in complete medium to the suspension in an amount such as to produce an iron binding concentration of 100 µmol of iron per litre (all of the chelators combine with iron in a ratio of 3 moles of chelator:1 mole of iron apart from the chelator number 10, desferrioxamine, which combines in a 1:1 molar ratio). The test cultures were immediately dispersed in 200 µl aliquots into 96 well microculture plates. Each chelator was tested in three or more wells and the whole experiment was carried out at least twice for each chelator. Control cultures were used in each experiment which contained no iron chelator.
The growth of the P. falciparum parasites was assessed both by light microscopy examination of thin films that had been stained with Giemsa and through measurement of tritiated hypoxanthine uptake, the cell cultures being harvested onto glass fibre filters and radioactivity, in terms of beta emission from each well, being measured in a flat bed liquid scintillation counter as described by Potter et al in Phys. Med. Biol., 1986, 31(4), 361.
The chelators tested consisted of 1-(2′-carboxyethyl)-3-hydroxy-2-methylpyridin-4-one (R₁ = CH₂CH₂CO₂H, R₂ = CH₃, R₃ = R₄ = H; compound 1) and, for the purposes of comparison with this chelator, nine other chelators not of formula (I) as defined hereinbefore, of which compounds 2 to 9 are 3-hydroxypyridin-4-ones and compound 10 is desferrioxamine. […] These findings were supported by a morphological examination of red cells sampled from the cultures. […] (B) The effect of using different dosage levels than the 100 µmol/l level used in (A) was studied employing the same procedure but using four dosage levels of 10 µmol/l, 25 µmol/l, 50 µmol/l and […]. Only the eight chelators which produced an inhibitory effect at 100 µmol/l were studied and controls containing no iron chelator were again employed.

P. falciparum [2] = assay: Red cell reinvasion at the beginning of the second parasite cycle (light microscopy)
Protocol: A study was made of red cells from cultures involving various dosage levels harvested at the beginning of the second parasite cycle, when young rings could be identified in untreated control cultures in order to determine whether or not red cell reinvasion had occurred in the cultures that had been exposed to a chelator. […] However, for the 3-hydroxypyridin-4-one compounds 1 to 6 and 9, young ring parasites were frequently found after incubation at a 25 µmol/l dosage level of the chelator and were always found at a 10 µmol/l dosage level, no significant differences being seen between the different compounds. At 50 µmol/l and 100 µmol/l no evidence of reinvasion was found. Thus, although the 3-hydroxypyridin-4-ones do produce growth inhibition at the lower dosage levels of 10 µmol/l and 25 µmol/l, higher levels than this are required to produce a cytocidal action.

MEL cells, clone 585 = assay: Inhibition of growth of murine erythroleukaemia (MEL) cells, cell counting; conditions: 50 µmol/l iron binding concentration; after 30 hours; Figure 2
Protocol: MEL cells, clone 585, were grown in suspension culture at 37°C in RPMI 1640 that had been supplemented with 13% v/v foetal calf serum, 25 µl/ml gentamicin, 1.9 mM glutamine and 2% diaminopurine as described by Peto et al in Br. J. Haematol., 1983, 54, 623. The cultures were maintained in an atmosphere containing 5% carbon dioxide and passaged every 3-4 days at a seeding concentration of 1-2 x 10⁴/ml to ensure that the cells were continually in logarithmic growth phase. Under these conditions, the doubling time for cell growth was 30-36 hours.
10 ml volumes of cell suspension were incubated in 50 ml flasks with each of the ten chelators identified in the Table at a 50 µmol/l iron binding concentration, controls being employed which contained no chelator. 400 µl aliquots were removed in duplicate for growth assessment at 24 hour intervals over the next four days. The experiment was repeated on three separate occasions, the initial cell concentration in each case being 2-3 x 10⁴ cells/ml. Cell growth was assessed both by examination of cultures using light microscopy and by cell counting. At various times throughout each experiment, 400 µl culture was added to 19.6 ml Isoton and the number of particles counted using a Coulter Counter ZN set at threshold 20 and attenuation 0.4
The effect of the different chelators on growth of the MEL cells after 30 hours was compared with the effect produced after a similar time by the same chelators at a 50 µmol/l iron binding concentration using the procedure described in Example 2(A). The results are illustrated in Figure 2. It will be seen that the compounds 2, 3, 4, 5, 6, 9 and 10 inhibited growth of MEL cells and of P. falciparum, the minimum growth inhibition being 80% and 70% respectively. […] When these two groups of chelators were examined together a close linear correlation (r = 0.978) was found between the degree of growth inhibition produced in both types of cell for each chelator studied. The compound 1 was distinguished from all of the other chelators in being the only one to have no significant inhibitory effect on the growth of MEL cells (<10%) whilst at the same time producing a substantial inhibitory effect on the growth of P. falciparum (>75%).

- IC50 (P. falciparum [1]; Plasmodium falciparum, four dosage levels (iron binding concentration), same procedure as (A), read-out: ID50 (the source's name)): 10 to 20 µM
Compound: CC(=O)N(O)CCCCCNC(=O)CCC(=O)N(O)CCCCCNC(=O)CCC(=O)N(O)CCCCCN [compound 10, Desferrioxamine]
- growth inhibition of P. falciparum (P. falciparum [1]; 50 µmol/l iron binding concentration, after 30 hours, Figure 2): ≥ 70%
- percentage inhibition of growth after 30 hours as compared with the controls (P. falciparum [1]; iron binding concentration of 100 µmol of iron per litre, 30 hours, Figure 1): more than 65%
- red cell reinvasion (young ring parasites) (P. falciparum [2]; 10 µmol/l dosage level): always found
- red cell reinvasion (young ring parasites) (P. falciparum [2]; 25 µmol/l dosage level): No evidence was found of reinvasion
- red cell reinvasion (young ring parasites) (P. falciparum [2]; 50 µmol/l dosage level): No evidence was found of reinvasion
- red cell reinvasion (young ring parasites) (P. falciparum [2]; 100 µmol/l dosage level): No evidence was found of reinvasion
- growth inhibition of MEL cells (MEL cells, clone 585): ≥ 80%
